# Test results as given in article PMC7663597, “Structure–Activity Relationship of Aloperine Derivatives as New Anti–Liver Fibrogenic Agents” (Molecules, 2020).
# Experiments:
# TGFB1 mRNA = test: RT-PCR of TGFB1 mRNA in LX-2 cells; assay type: cell-based, human; conditions: TGF-β1 (2 ng/mL) stimulation, 24 h
# Procedure: In the absence or presence of TGF-β1 (2 ng/mL) treatment, LX-2 cells were treated with key compounds 4n and 4p at concentrations of 6 μM and 12 μM, or 4i at a concentration of 12 μM, respectively.
# Since the stimulation of TGF-β1 provokes the expression of a series of fibrosis genes, for example COL1A1 and TGFB1 [24, 25], the effects of key compounds on TGF-β1 expression were evaluated by RT-PCR and western blot assays. As shown in Figure 2B and Supplementary Table S1, the expression of TGFB1 mRNA was maintained at a low level, and the addition of a key compound seemed to have little effect on its expression.
# LX-2 cells were laid on 6-well plate and cultured in DMEM supplemented with 10% fetal bovine serum (FBS) in a 5% CO2 atmosphere at 37 °C. And serum-free culture was required until the cells reached 90−95% confluence. After 24 h, cells were incubated with […] concentrations of aloperine derivatives in the presence of 2 ng/mL of TGF-β1 for 24 h. Total RNA of the LX-2 cells was isolated using TRIzol reagent, purified using NucleoSpin RNA Clean-up. Reverse transcription was performed with Transcriptor first strand cDNA synthesis kit. Subsequently, the cDNA levels was determined by ABI 7500 Fast Real-Time PCR System using TaqMan probes of COL1A1, TGF-β1, α-SMA, and GAPDH (sequence not disclosed by ABI) and FastStart Universal Probe master mix (Roche, Indianapolis, IN, USA).
# COL1A1 protein = test: Western blot of COL1A1 protein in LX-2 cells; assay type: cell-based; conditions: Homo sapiens, 24 h, read-out: Inhibition rate of COL1A1 protein; for inhibition at 6 µM: with TGF-β1, 6 μM; for inhibition at 12 µM: with TGF-β1, 12 μM
# Procedure: Then the anti-COL1A1 effects of 4n and 4p on protein level were evaluated by western blot assay.
# (§1) LX-2 cells were cultured as described above. Cells were washed with phosphate-buffered saline (PBS) and were resuspended by radioimmunoprecipitation assay (RIPA) lysis buffer for 30 min in 4 °C; the supernatant was collected after centrifugation at 12000 g for 15 min at 4 °C. Subsequently, equal amounts of protein were quantified with Bradford assay, separated using SDS-PAGE and transferred onto polyvinylidene difluoride membrane. The membranes were blocked with 5% milk in PBST for 1 h, and probed with specific primary antibodies overnight at room temperature. The membrane was washed three times by PBST, and probed with horseradish peroxidase-conjugated secondary antibodies and GAPDH. The proteins were visualized by chemiluminescence reagents. Antibodies used in western blot analysis were obtained from Abcam (Cambridge, UK): anti-collagen 1 (ab34710), anti-TGF beta 1 antibody (ab179695), anti-alpha smooth muscle actin (ab32575) and Cell Signaling Technology (Danvers, MA, USA): GAPDH (D16H11) Rabbit mAb (5174).
# α-SMA protein = test: Western blot of α-SMA protein in LX-2 cells; assay type: cell-based, human; conditions: with TGF-β1, 6 and 12 μM, 24 h
# Procedure: Stellate cell activation is a key process for liver fibrogenesis, and α-SMA expression, induced by a stimulation of TGF-β1 or other factors, is considered a reliable marker of hepatic stellate cell activation and a key biomarker for liver fibrosis. Therefore, the expression of α-SMA was also investigated. As presented in Figure 3A–C and Supplementary Table S2, in our experiments, the addition of TGF-β1 stimulated the expression of α-SMA on protein level as expected.
# as §1, with “Antibodies used in western blot analysis were obtained from Abcam (Cambridge, UK): anti-collagen 1 (ab34710), anti-TGF beta 1 antibody (ab179695), anti-alpha smooth muscle actin (ab32575) and Cell Signaling Technology (Danvers, MA, USA): GAPDH (D16H11) Rabbit mAb (5174).” left out
# [1] = LX-2 cell survival, sulforhodamine B (SRB) assay; assay type: cell-based; conditions: human, LX-2 cells
# Procedure: LX-2 cell survival was measured by sulforhodamine B (SRB) assay. The cells were seeded in 96-well plates at the density of 2 × 10^4/well and cultured in DMEM/GlutaMAX I medium with 10% fetal bovine serum (FBS) with 5% CO2, 37 °C. The cells were treated by the aloperine derivates for 24 h, washed by PBS for three times. Then the cells were fixed with 10% (wt/vol) trichloroacetic acid for 1 h and stained with SRB for 0.5 h. Subsequently, the protein-bound dye was dissolved in 10 mM Tris base solution after removing excess SRB dye washing repeatedly with 1% (vol/vol) acetic acid, the optical density (OD) was determined at 510 nm with a microplate reader.
# [2] = HepG2 cell survival, MTT assay; assay type: cell-based; conditions: human, HepG2 cells
# Procedure: HepG2 cell survival was measured by MTT assay. HepG2 cells, at density of 6x10^3 cells/well in 96-well culture plates, were incubated with the aloperine derivates at various concentrations until the cells at 50% confluence for 24 h. 20 µL of the MTT (5 mg/mL) solution was added to each plate and incubated with 5% CO2, 37 °C for 4 h. Subsequently, withdrawing the culture supernatant containing MTT, 150 µL DMSO was used for dissolving the formazan crystal. The absorbance was measured using a microplate reader at 570 nm.
Compound,Inhibitory rate of TGFB1 mRNA expression (TGFB1 mRNA; 6 μM),Inhibitory rate of TGFB1 mRNA expression (TGFB1 mRNA; 12 μM),inhibition at 6 µM (COL1A1 protein),inhibition at 12 µM (COL1A1 protein),Inhibition of α-SMA expression on protein level (α-SMA protein),CC50 at 24 h [1],CC50 at 24 h [2]
"O=C(CN1CCCC2=C[C@H]3C[C@H](CN4CCCC[C@H]34)[C@@H]21)N(c1ccccc1)c1ccc2ccccc2c1 [4n, 12N-(N’-(Naphthalen-2-yl)-N’-phenyl)carbamoylmethyl aloperine]",57.7%,60.0%,31.8%,76.5%,dose-dependent inhibition,17.1 ± 5.4 µM,35.2 ± 4.1 µM
"O=C(CN1CCCC2=C[C@H]3C[C@H](CN4CCCC[C@H]34)[C@@H]21)N1c2ccccc2Oc2ccccc21 [4p, 12N-N′-Phenoxazinylcarbamoylmethyl aloperine]",60.8%,63.8%,22.7%,79.2%,dose-dependent inhibition,34.8 ± 2.9 µM,43.7 ± 2.7 µM
